According to patent US11820766B2, “Monoacylglycerol lipase modulators” (Janssen Pharmaceutica NV, priority 2018, dated 2023):

Target: T1, human MGL from HeLa cells (Homo sapiens, UniProt Q99685)
T1 construct: combining endogenously expressed MGL from HeLa cells with test compounds; endogenous in cells; host or cells: HeLa cells / cell homogenates
T1 sequence (Q99685 1-303): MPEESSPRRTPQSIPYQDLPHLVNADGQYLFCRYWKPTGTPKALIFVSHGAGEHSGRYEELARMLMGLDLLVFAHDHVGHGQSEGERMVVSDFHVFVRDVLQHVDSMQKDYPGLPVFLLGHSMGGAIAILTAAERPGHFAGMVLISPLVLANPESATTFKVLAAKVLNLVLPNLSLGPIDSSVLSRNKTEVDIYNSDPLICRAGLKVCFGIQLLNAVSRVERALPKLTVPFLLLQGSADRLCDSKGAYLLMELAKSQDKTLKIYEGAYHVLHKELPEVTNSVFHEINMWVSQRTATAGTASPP
Experiment: In vitro MGL activity assay: [glycerol-1,3-3H]-oleyl glycerol cleavage by MGL from HeLa cells
Type: biochemical
Conditions: 300 nM [Glycerol-1,3-3H]-oleyl glycerol, one hour
Description: MGL is the predominant hydrolase in HeLa cells/cell homogenates.

| IC50 | Compound |
| --- | --- |
| 133 nM | C[C@H]1c2nn(C)c(-c3ccc4c(c3)OCO4)c2CCN1C(=O)c1ccc2ncccc2c1 [Example 540, [(7S)-3-(1,3-Benzodioxol-5-yl)-2,7-dimethyl-5,7-dihydro-4H-pyrazolo[3,4-c]pyridin-6-yl]-(6-quinolyl)methanone] |
| 2.17 nM | C[C@H]1c2nn(C)c(-c3cccc4c3OCO4)c2CCN1C(=O)c1ccc2ncccc2c1 [Example 541, [(7S)-3-(1,3-Benzodioxol-4-yl)-2,7-dimethyl-5,7-dihydro-4H-pyrazolo[3,4-c]pyridin-6-yl]-(6-quinolyl)methanone] |
| 81.2 nM | C[C@H]1c2nn(C)c(-c3cccc4c3OC(F)(F)O4)c2CCN1C(=O)c1ccc2ncccc2c1 [Example 542, [(7S)-3-(2,2-Difluoro-1,3-benzodioxol-4-yl)-2,7-dimethyl-5,7-dihydro-4H-pyrazolo[3,4-c]pyridin-6-yl]-(6-quinolyl)methanone] |
| 4.92 nM | C[C@H]1c2nn(C)c(-c3cc(F)c(F)c(F)c3)c2CCN1C(=O)c1cccc2cnccc12 [Example 543, [(7S)-2,7-Dimethyl-3-(3,4,5-trifluorophenyl)-5,7-dihydro-4H-pyrazolo[3,4-c]pyridin-6-yl]-(5-isoquinolyl)methanone] |
| 10.2 nM | C[C@H]1c2nn(C)c(-c3cc(F)c(F)c(F)c3)c2CCN1C(=O)c1ccc2cnccc2c1 [Example 544, [(7S)-2,7-Dimethyl-3-(3,4,5-trifluorophenyl)-5,7-dihydro-4H-pyrazolo[3,4-c]pyridin-6-yl]-(6-isoquinolyl)methanone] |
| 11.7 nM | C[C@H]1c2nn(C)c(-c3cc(F)c(F)c(F)c3)c2CCN1C(=O)c1cnc2cccc(F)c2c1 [Example 545, [(7S)-2,7-Dimethyl-3-(3,4,5-trifluorophenyl)-5,7-dihydro-4H-pyrazolo[3,4-c]pyridin-6-yl]-(5-fluoro-3-quinolyl)methanone] |
| 5.06 nM | C[C@H]1c2nn(C)c(-c3cc(F)c(F)c(F)c3)c2CCN1C(=O)c1cncc2c(F)cccc12 [Example 546, [(7S)-2,7-Dimethyl-3-(3,4,5-trifluorophenyl)-5,7-dihydro-4H-pyrazolo[3,4-c]pyridin-6-yl]-(8-fluoro-4-isoquinolyl)methanone] |
| 5.62 nM | C[C@H]1c2nn(C)c(-c3cc(F)c(F)c(F)c3)c2CCN1C(=O)c1ccc2nccc(Br)c2c1 [Example 547, (4-Bromo-6-quinolyl)-[(7S)-2,7-dimethyl-3-(3,4,5-trifluorophenyl)-5,7-dihydro-4H-pyrazolo[3,4-c]pyridin-6-yl]methanone] |
| 16.2 nM | Cc1ccc2cc(C(=O)N3CCc4c(nn(C)c4-c4cc(F)c(F)c(F)c4)[C@@H]3C)ccc2n1 [Example 548, [(7S)-2,7-Dimethyl-3-(3,4,5-trifluorophenyl)-5,7-dihydro-4H-pyrazolo[3,4-c]pyridin-6-yl]-(2-methyl-6-quinolyl)methanone] |
| 1.99 nM | Cc1ccnc2ccc(C(=O)N3CCc4c(nn(C)c4-c4cc(F)c(F)c(F)c4)[C@@H]3C)cc12 [Example 549, [(7S)-2,7-Dimethyl-3-(3,4,5-trifluorophenyl)-5,7-dihydro-4H-pyrazolo[3,4-c]pyridin-6-yl]-(4-methyl-6-quinolyl)methanone] |
| 48.3 nM | COc1cccc2c(C(=O)N3CCc4c(nn(C)c4-c4cc(F)c(F)c(F)c4)[C@@H]3C)ccnc12 [Example 550, [(7S)-2,7-Dimethyl-3-(3,4,5-trifluorophenyl)-5,7-dihydro-4H-pyrazolo[3,4-c]pyridin-6-yl]-(8-methoxy-4-quinolyl)methanone] |
| 122 nM | C[C@H]1c2nn(C)c(-c3cc(F)c(F)c(F)c3)c2CCN1C(=O)c1cnn2c1CCC2 [Example 551, 5,6-Dihydro-4H-pyrrolo[1,2-b]pyrazol-3-yl-[(7S)-2,7-dimethyl-3-(3,4,5-trifluorophenyl)-5,7-dihydro-4H-pyrazolo[3,4-c]pyridin-6-yl]methanone] |
| 40.4 nM | C[C@H]1c2nn(C)c(-c3cc(F)c(F)c(F)c3)c2CCN1C(=O)c1cnn2c1CCCC2 [Example 552, [(7S)-2,7-Dimethyl-3-(3,4,5-trifluorophenyl)-5,7-dihydro-4H-pyrazolo[3,4-c]pyridin-6-yl]-(4,5,6,7-tetrahydropyrazolo[1,5-a]pyridin-3-yl)methanone] |
| 285 nM | C[C@H]1c2nn(C)c(-c3cc(F)c(F)c(F)c3)c2CCN1C(=O)c1cc2n(n1)CCCO2 [Example 553, 6,7-Dihydro-5H-pyrazolo[5,1-b][1,3]oxazin-2-yl-[(7S)-2,7-dimethyl-3-(3,4,5-trifluorophenyl)-5,7-dihydro-4H-pyrazolo[3,4-c]pyridin-6-yl]methanone] |
| 57.6 nM | C[C@H]1c2nn(C)c(-c3cc(F)c(F)c(F)c3)c2CCN1C(=O)c1cnn2c1OCCC2 [Example 554, 6,7-Dihydro-5H-pyrazolo[5,1-b][1,3]oxazin-3-yl-[(7S)-2,7-dimethyl-3-(3,4,5-trifluorophenyl)-5,7-dihydro-4H-pyrazolo[3,4-c]pyridin-6-yl]methanone] |
| 183 nM | Cc1c(C(=O)N2CCc3c(nn(C)c3-c3cc(F)c(F)c(F)c3)[C@@H]2C)nn2c1OCCC2 [Example 555, [(7S)-2,7-Dimethyl-3-(3,4,5-trifluorophenyl)-5,7-dihydro-4H-pyrazolo[3,4-c]pyridin-6-yl]-(3-methyl-6,7-dihydro-5H-pyrazolo[5,1-b][1,3]oxazin-2-yl)methanone] |
| 803 nM | Cc1nn2c(c1C(=O)N1CCc3c(nn(C)c3-c3cc(F)c(F)c(F)c3)[C@@H]1C)COC(C)(C)C2 [Example 556, [(7S)-2,7-Dimethyl-3-(3,4,5-trifluorophenyl)-5,7-dihydro-4H-pyrazolo[3,4-c]pyridin-6-yl]-(2,6,6-trimethyl-4,7-dihydropyrazolo[5,1-c][1,4]oxazin-3-yl)methanone] |
| 1840 nM | Cc1c(C(=O)N2CCc3c(nn(C)c3-c3cc(F)c(F)c(F)c3)[C@@H]2C)nn2c1COC(C)(C)C2 [Example 557, [(7S)-2,7-Dimethyl-3-(3,4,5-trifluorophenyl)-5,7-dihydro-4H-pyrazolo[3,4-c]pyridin-6-yl]-(3,6,6-trimethyl-4,7-dihydropyrazolo[5,1-c][1,4]oxazin-2-yl)methanone] |
| 1800 nM | C[C@H]1c2nn(C)c(-c3cc(F)c(F)c(F)c3)c2CCN1C(=O)c1cnn2c1NCCC2C(F)(F)F (stereo partly drawn) [Example 558, ((S)-2,7-Dimethyl-3-(3,4,5-trifluorophenyl)-4,5-dihydro-2H-pyrazolo[3,4-c]pyridin-6 (7H)-yl)(7-(trifluoromethyl)-4,5,6,7-tetrahydropyrazolo[1,5-a]pyrimidin-3-yl)methanone] |
| 294 nM | C[C@H]1c2nn(C)c(-c3cc(F)c(F)c(F)c3)c2CCN1C(=O)c1cnc2n1CCC2 [Example 559, 6,7-Dihydro-5H-pyrrolo[1,2-a]imidazol-3-yl-[(7S)-2,7-dimethyl-3-(3,4,5-trifluorophenyl)-5,7-dihydro-4H-pyrazolo[3,4-c]pyridin-6-yl]methanone] |
| 120 nM | C[C@H]1c2nn(C)c(-c3cc(F)c(F)c(F)c3)c2CCN1C(=O)c1cnc2n1CCCC2 [Example 560, [(7S)-2,7-Dimethyl-3-(3,4,5-trifluorophenyl)-5,7-dihydro-4H-pyrazolo[3,4-c]pyridin-6-yl]-(5,6,7,8-tetrahydroimidazo[1,2-a]pyridin-3-yl)methanone] |
| 326 nM | C[C@H]1c2nn(C)c(-c3cc(F)c(F)c(F)c3)c2CCN1C(=O)c1c(C(F)F)nc2n1CCCC2 [Example 561, [2-(Difluoromethyl)-5,6,7,8-tetrahydroimidazo[1,2-a]pyridin-3-yl]-[(7S)-2,7-dimethyl-3-(3,4,5-trifluorophenyl)-5,7-dihydro-4H-pyrazolo[3,4-c]pyridin-6-yl]methanone] |
| 717 nM | C[C@H]1c2nn(C)c(-c3cc(F)c(F)c(F)c3)c2CCN1C(=O)c1cnc2n1CCOC2 [Example 562, 6,8-Dihydro-5H-imidazo[2,1-c][1,4]oxazin-3-yl-[(7S)-2,7-dimethyl-3-(3,4,5-trifluorophenyl)-5,7-dihydro-4H-pyrazolo[3,4-c]pyridin-6-yl]methanone] |
| 329 nM | C[C@H]1c2nn(C)c(-c3cc(F)c(F)c(F)c3)c2CCN1C(=O)c1cnc2c(c1)CCCO2 [Example 563, 3,4-Dihydro-2H-pyrano[2,3-b]pyridin-6-yl-[(7S)-2,7-dimethyl-3-(3,4,5-trifluorophenyl)-5,7-dihydro-4H-pyrazolo[3,4-c]pyridin-6-yl]methanone] |
| 58.7 nM | C[C@H]1c2nn(C)c(-c3cc(F)c(F)c(F)c3)c2CCN1C(=O)c1ccnc2c1CCCO2 [Example 564, 3,4-Dihydro-2H-pyrano[2,3-b]pyridin-5-yl-[(7S)-2,7-dimethyl-3-(3,4,5-trifluorophenyl)-5,7-dihydro-4H-pyrazolo[3,4-c]pyridin-6-yl]methanone] |
| 108 nM | C[C@H]1c2nn(C)c(-c3cc(F)c(F)c(F)c3)c2CCN1C(=O)c1ccnc2c1CCOC2 [Example 565, 6,8-Dihydro-5H-pyrano[3,4-b]pyridin-4-yl-[(7S)-2,7-dimethyl-3-(3,4,5-trifluorophenyl)-5,7-dihydro-4H-pyrazolo[3,4-c]pyridin-6-yl]methanone] |
| 533 nM | C[C@H]1c2nn(C)c(-c3cc(F)c(F)c(F)c3)c2CCN1C(=O)c1ccc2c(n1)COCC2 [Example 566, 6,8-Dihydro-5H-pyrano[3,4-b]pyridin-2-yl-[(7S)-2,7-dimethyl-3-(3,4,5-trifluorophenyl)-5,7-dihydro-4H-pyrazolo[3,4-c]pyridin-6-yl]methanone] |
| 1050 nM | C[C@H]1c2nn(C)c(-c3cc(F)c(F)c(F)c3)c2CCN1C(=O)c1cnc2c(c1)COCC2 [Example 567, 7,8-Dihydro-5H-pyrano[4,3-b]pyridin-3-yl-[(7S)-2,7-dimethyl-3-(3,4,5-trifluorophenyl)-5,7-dihydro-4H-pyrazolo[3,4-c]pyridin-6-yl]methanone] |
